In PubChem BioAssay AID2060505 (Molecular Pharmacology Branch, DTP, NCI, 2025):

System: 633275-114-R-J1-PDC complex spheroids, viability
Experiment: Anticancer human tumor 633275-114-R-J1-PDC patient-derived endometrial adenocarcinoma cell line growth inhibition [GQUAD]
Conditions: for IC50: curve of first compound; for viability, T/C: stronger effect = lower value
Summary of the method: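 Multi-cell-type spheroids of tumor cells with HUVEC and mesenchymal stem cells, treated with drug combinations. Concentrations descend in half-log steps from near clinical Cmax, or from 10 microM where Cmax is unknown; viability read-out.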

[1] = second compound 0.0316 µM, first compound 0.0316 µM
[2] = second compound 0.0316 µM, first compound 0.1 µM
[3] = second compound 0.0316 µM, first compound 0.316 µM
[4] = second compound 0.0316 µM, first compound 1 µM
[5] = second compound 0.0316 µM, first compound 3.16 µM
[6] = second compound 0.0316 µM, first compound 10 µM
[7] = second compound 0.1 µM, first compound 0.0316 µM
[8] = second compound 0.1 µM, first compound 0.1 µM
[9] = second compound 0.1 µM, first compound 0.316 µM
[10] = second compound 0.1 µM, first compound 1 µM
[11] = second compound 0.1 µM, first compound 3.16 µM
[12] = second compound 0.1 µM, first compound 10 µM
[13] = second compound 0.316 µM, first compound 0.0316 µM
[14] = second compound 0.316 µM, first compound 0.1 µM
[15] = second compound 0.316 µM, first compound 0.316 µM
[16] = second compound 0.316 µM, first compound 1 µM
[17] = second compound 0.316 µM, first compound 3.16 µM
[18] = second compound 0.316 µM, first compound 10 µM
[19] = second compound 1 µM, first compound 0.0316 µM
[20] = second compound 1 µM, first compound 0.1 µM
[21] = second compound 1 µM, first compound 0.316 µM
[22] = second compound 1 µM, first compound 1 µM
[23] = second compound 1 µM, first compound 3.16 µM
[24] = second compound 1 µM, first compound 10 µM
[25] = second compound 3.16 µM, first compound 0.0316 µM
[26] = second compound 3.16 µM, first compound 0.1 µM
[27] = second compound 3.16 µM, first compound 0.316 µM
[28] = second compound 3.16 µM, first compound 1 µM
[29] = second compound 3.16 µM, first compound 3.16 µM
[30] = second compound 3.16 µM, first compound 10 µM
[31] = second compound 10 µM, first compound 0.0316 µM
[32] = second compound 10 µM, first compound 0.1 µM
[33] = second compound 10 µM, first compound 0.316 µM
[34] = second compound 10 µM, first compound 1 µM
[35] = second compound 10 µM, first compound 3.16 µM
[36] = second compound 10 µM, first compound 10 µM
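Also: spheroids exposed to the agents for seven days.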
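For viability, T/C in this document: percent of DMSO vehicle control viability which is 100%.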

With `CCCS(=O)(=O)Nc1ccc(F)c(C(=O)c2c[nH]c3ncc(-c4ccc(Cl)cc4)cc23)c1F` + Cc1[nH]c2ccc(F)cc2c1-c1nc2c3cccnc3c3ncccc3c2[nH]1 the IC50 (second compound 0.0316 µM) was 9540 nM, the IC50 (second compound 0.1 µM) was 9210 nM and the IC50 (second compound 0.316 µM) was 8580 nM. For the same compound, the IC50 (second compound 1 µM) was 8240 nM, the IC50 (second compound 3.16 µM) was 7090 nM and the IC50 (second compound 10 µM) was > 10000 nM. It also gave a viability, T/C [1] of 103%, a viability, T/C [2] of 94.6% and a viability, T/C [3] of 107%. It also gave a viability, T/C [4] of 100%, a viability, T/C [5] of 86.8% and a viability, T/C [6] of 48.1%. For the same compound, the viability, T/C [7] was 100%, the viability, T/C [8] was 108% and the viability, T/C [9] was 102%. For the same compound, the viability, T/C [10] was 102%, the viability, T/C [11] was 91.6% and the viability, T/C [12] was 46.7%. The viability, T/C [13] was 91.2%, the viability, T/C [14] was 98.9% and the viability, T/C [15] was 103%. For the same compound, the viability, T/C [16] was 104%, the viability, T/C [17] was 94.7% and the viability, T/C [18] was 43.1%. The viability, T/C [19] was 86.4%, the viability, T/C [20] was 88.8% and the viability, T/C [21] was 92.5%. It also gave a viability, T/C [22] of 90.2%, a viability, T/C [23] of 90.1% and a viability, T/C [24] of 42%. The viability, T/C [25] was 70.7%, the viability, T/C [26] was 71.2% and the viability, T/C [27] was 66.9%. For the same compound, the viability, T/C [28] was 76.2%, the viability, T/C [29] was 71.2% and the viability, T/C [30] was 41%. The viability, T/C [31] was 60.4%, the viability, T/C [32] was 64.3% and the viability, T/C [33] was 65.2%. The viability, T/C [34] was 74.4%, the viability, T/C [35] was 63.3% and the viability, T/C [36] was 41.1%.
With `Cc1[nH]c2ccccc2c1CCNCc1ccc(/C=C/C(=O)NO)cc1` + Cc1[nH]c2ccc(F)cc2c1-c1nc2c3cccnc3c3ncccc3c2[nH]1 the IC50 (second compound 0.0316 µM) was 63 nM, the IC50 (second compound 0.1 µM) was 83.5 nM and the IC50 (second compound 0.316 µM) was 65.7 nM. It also gave an IC50 (second compound 1 µM) of 54.6 nM, an IC50 (second compound 3.16 µM) of 21 nM and an IC50 (second compound 10 µM) of 16.2 nM. For the same compound, the viability, T/C (second compound 0.0316 µM, first compound 0.000999 µM) was 103%, the viability, T/C (second compound 0.0316 µM, first compound 0.00316 µM) was 85.6% and the viability, T/C (second compound 0.0316 µM, first compound 0.00999 µM) was 79.1%. For the same compound, the viability, T/C [1] was 64.2%, the viability, T/C (second compound 0.0316 µM, first compound 0.0999 µM) was 41.4% and the viability, T/C [3] was 19.3%. It also gave a viability, T/C (second compound 0.1 µM, first compound 0.000999 µM) of 90.6%, a viability, T/C (second compound 0.1 µM, first compound 0.00316 µM) of 90.4% and a viability, T/C (second compound 0.1 µM, first compound 0.00999 µM) of 81.6%. The viability, T/C [7] was 70.5%, the viability, T/C (second compound 0.1 µM, first compound 0.0999 µM) was 46.1% and the viability, T/C [9] was 17.3%. It also gave a viability, T/C (second compound 0.316 µM, first compound 0.000999 µM) of 94%, a viability, T/C (second compound 0.316 µM, first compound 0.00316 µM) of 94% and a viability, T/C (second compound 0.316 µM, first compound 0.00999 µM) of 71.2%. It also gave a viability, T/C [13] of 62.3%, a viability, T/C (second compound 0.316 µM, first compound 0.0999 µM) of 44.8% and a viability, T/C [15] of 19.7%. For the same compound, the viability, T/C (second compound 1 µM, first compound 0.000999 µM) was 87.6%, the viability, T/C (second compound 1 µM, first compound 0.00316 µM) was 78.7% and the viability, T/C (second compound 1 µM, first compound 0.00999 µM) was 71.7%. It also gave a viability, T/C [19] of 57.2%, a viability, T/C (second compound 1 µM, first compound 0.0999 µM) of 41.9% and a viability, T/C [21] of 21.2%. For the same compound, the viability, T/C (second compound 3.16 µM, first compound 0.000999 µM) was 69.8%, the viability, T/C (second compound 3.16 µM, first compound 0.00316 µM) was 64.9% and the viability, T/C (second compound 3.16 µM, first compound 0.00999 µM) was 53.6%. The viability, T/C [25] was 45.1%, the viability, T/C (second compound 3.16 µM, first compound 0.0999 µM) was 41.3% and the viability, T/C [27] was 21.7%. It also gave a viability, T/C (second compound 10 µM, first compound 0.000999 µM) of 62%, a viability, T/C (second compound 10 µM, first compound 0.00316 µM) of 65.4% and a viability, T/C (second compound 10 µM, first compound 0.00999 µM) of 48.7%. It also gave a viability, T/C [31] of 45.5%, a viability, T/C (second compound 10 µM, first compound 0.0999 µM) of 36.4% and a viability, T/C [33] of 20.8%.
In the case of `O=C(NO)c1cnc(N2CCN(S(=O)(=O)c3ccc4ccccc4c3)CC2)nc1` + Cc1[nH]c2ccc(F)cc2c1-c1nc2c3cccnc3c3ncccc3c2[nH]1, the IC50 (second compound 0.0316 µM) is reported as 371 nM, the IC50 (second compound 0.1 µM) is reported as 527 nM and the IC50 (second compound 0.316 µM) is reported as 574 nM. The IC50 (second compound 1 µM) was 492 nM, the IC50 (second compound 3.16 µM) was 336 nM and the IC50 (second compound 10 µM) was 362 nM. For the same compound, the viability, T/C [1] was 88.1%, the viability, T/C [2] was 77.9% and the viability, T/C [3] was 51.7%. It also gave a viability, T/C [4] of 29%, a viability, T/C [5] of 16.9% and a viability, T/C [6] of 5.26%. The viability, T/C [7] was 91.7%, the viability, T/C [8] was 83.9% and the viability, T/C [9] was 63.5%. It also gave a viability, T/C [10] of 32.1%, a viability, T/C [11] of 16% and a viability, T/C [12] of 3.49%. For the same compound, the viability, T/C [13] was 82.3%, the viability, T/C [14] was 86.2% and the viability, T/C [15] was 62.4%. It also gave a viability, T/C [16] of 34.7%, a viability, T/C [17] of 18.5% and a viability, T/C [18] of 1.56%. The viability, T/C [19] was 91.3%, the viability, T/C [20] was 77.2% and the viability, T/C [21] was 57.9%. For the same compound, the viability, T/C [22] was 37%, the viability, T/C [23] was 17.2% and the viability, T/C [24] was 1.48%. For the same compound, the viability, T/C [25] was 72.3%, the viability, T/C [26] was 60.2% and the viability, T/C [27] was 52.6%. For the same compound, the viability, T/C [28] was 35.2%, the viability, T/C [29] was 15.8% and the viability, T/C [30] was 2.67%. The viability, T/C [31] was 62.1%, the viability, T/C [32] was 58.3% and the viability, T/C [33] was 54.8%. The viability, T/C [34] was 32.5%, the viability, T/C [35] was 17.8% and the viability, T/C [36] was 3.92%.
